Literature values in patent publication US5883103A, “Oral acyclovir delivery” (priority 1995, dated 1999).

Tests used:
[1] = tested on: viral DNA polymerase
[2] = tested on: cellular α-DNA polymerase; settings: compared with viral DNA polymerase
[3] = tested on: uninfected normal cells
[4] = tested on: herpes simplex virus (HSV), cytomegalovirus (CMV) and varicella-zoster
[5] = tested on: Epstein-Barr virus (EBV)
[6] = tested on: TK encoded by HSV, varicella zoster, and EBV
[7] = tested on: thymidine kinase (TK) expressed by uninfected normal cells
[8] = oral
[9] = tested on: herpes simplex types 2 (HSV-2)
[10] = tested on: varicella-zoster; settings: in vivo
[11] = tested on: herpes simplex types I (HSV-1)
[12] = tested on: varicella zoster
[13] = tested on: cytomegalovirus (CMV)

Row | Compound | effect on viral DNA polymerase [1] | effect on cellular α-DNA polymerase [2] | toxicity in vitro for uninfected normal cells [3] | safety and efficacy in treatment of viral disease ([4]; immunocompromised and immunocompetent patients) | suppression of reactivated or newly acquired viral diseases ([4]; oral administration, genital herpes simplex, shingles, acute varicella-zoster) | morbidity and mortality from viral disease ([4]; pre- and postoperative prophylaxis, long-term (>6 months) oral) | inhibition of EBV [5] | conversion by viral TK [6] | substrate for TK of uninfected normal cells [7] | absorption [8] | bioavailability [8] | inhibition of HSV-2 [9] | effect on symptoms of acute varicella-zoster disease [10] | inhibition of HSV-1 [11] | inhibition of varicella zoster [12] | inhibition of CMV [13]
1 | Nc1nc2c(ncn2COCCOP(=O)(O)OP(=O)(O)OP(=O)(O)O)c(=O)[nH]1 [Acyclovir triphosphate] | interferes with viral DNA polymerase | to a lesser degree |  |  |  |  |  |  |  |  |  |  |  |  |  | 
2 | Nc1nc2c(ncn2COCCO)c(=O)[nH]1 [acyclovir, 2-amino-1,9-dihydro-9-[(2-hydroxy-ethoxy)methyl]-6H-purin-6-one] |  |  | much less toxic in vitro for uninfected normal cells | safe and effective | suppression of reactivated or newly acquired viral diseases | reduced | inhibits | converts acyclovir into acyclovir monophosphate | not a substrate | slowly and erratically absorbed | 15-30% | inhibits | reduces fever, chronic pain, the progression of rash and accelerates cutaneous healing | inhibits | inhibits | inhibits
